Experimental data as given in BindingDB's records for patent US10988451 (Gilead Sciences, 2021).

biological target: T1, Induced myeloid leukemia cell differentiation protein Mcl-1 [171-327] (Homo sapiens, UniProt Q07820); test: AlphaLISA Assay
T1 construct: 171-327
Procedure: The AlphaLISA assay was performed in a 384-well Proxiplate in a total volume of […]. The reaction mixture contained 0.0625 nM 6× His-Mcl-1 (171-327), 0.0625 nM biotinylated-Bim peptide, 10 μg/mL AlphaLISA anti-6×His-AlphaLISA acceptor beads, 40 μg/mL AlphaScreen streptavidin donor beads, and serially diluted test compounds in the binding buffer (20 mM Hepes, pH 7.5 (Teknova H1035); 150 mM NaCl (Promega V4221); 0.002% Brij 35 (Thermo Scientific 20150); 1 mM Dithiothreitol (DTT) Solution (Affymetrix 70726); 0.01% BSA (BioLabs B9000S)). 1,000× test compounds were pre-spotted onto 384-well Proxiplate (Labcyte Echo) by Echo 555 Liquid Handler (Labcyte Inc., San Jose, Calif.) followed by incubation of 5 μl Mcl-1(171-327) for 1 hour. Then 5 μL Bim (51-76) was added and incubated for 2 hours. Five μL AlphaLISA anti-6His-AlphaLISA acceptor beads were then added for 1 hour followed by addition of 5 μL AlphaScreen streptavidin donor beads for 1 hour. The reaction plates were then read on an Envision multimode reader (PerkinElmer) using AlphaScreen settings.

T1 sequence (Q07820 171-327): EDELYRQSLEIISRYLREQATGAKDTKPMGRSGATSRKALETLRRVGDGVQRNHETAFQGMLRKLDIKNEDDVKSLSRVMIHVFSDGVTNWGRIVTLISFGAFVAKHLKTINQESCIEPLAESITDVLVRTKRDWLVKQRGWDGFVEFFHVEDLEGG

IC50 [nM]	SMILES
0.153	CO[C@H]1/C=C/C[C@H](C)C[S@@](=O)(NC(=O)c2cc3n(c2F)CCOC3)=NC(=O)c2ccc3c(c2)N(C[C@@H]2CC[C@H]21)C[C@@]1(CCCc2cc(Cl)ccc21)CO3 [US10988451, Example 174]
0.03	C[C@@H]1[C@@H](C)C/C=C/[C@H](O)[C@@H]2CC[C@H]2CN2C[C@@]3(CCCc4cc(Cl)ccc43)COc3ccc(cc32)C(=O)N=[S@]1(=O)NC(=O)c1cc2n(c1)C[C@H](CN1CCN3CCOC[C@H]3C1)OC2 [US10988451, Example 229]
0.121	CO[C@H]1/C=C/C[C@H](C)C[S@@](=O)(NC(=O)C2CC(OC(F)F)C2)=NC(=O)c2ccc3c(c2)N(C[C@@H]2CC[C@H]21)C[C@@]1(CCCc2cc(Cl)ccc21)CO3 (stereo partly drawn) [US10988451, Example 431]
